Source: the NIST ThermoML archive (doi:10.1016/j.jct.2011.01.014)
± gives the expanded uncertainty stated by the source.

Assay: xn = mol fraction of the nth substance listed
Conditions: 101 kPa, Liquid; for speed of sound: sound velocity cell; for mass density: Vibrating tube method

CC(=O)[O-].[NH3+]CCO [2-hydroxyethylammonium acetate] + O
Conditions	mass density [kg/m3]	speed of sound [m/s]
305.65 K, x1 = 0.051	–	1689.8 ± 2.6
305.65 K, x1 = 0.1019	–	1763.6 ± 1.4
305.65 K, x1 = 0.1963	–	1817.3 ± 1.2
305.65 K, x1 = 0.2894	–	1823.5 ± 1.4
305.65 K, x1 = 0.3959	–	1811.5 ± 1.6
305.65 K, x1 = 0.5016	–	1799.8 ± 1.9
305.65 K, x1 = 0.5821	–	1797 ± 2
305.65 K, x1 = 0.6837	–	1788.2 ± 2.3
305.65 K, x1 = 0.7763	–	1786.6 ± 2.6
305.65 K, x1 = 0.8761	–	1776.6 ± 2.8
305.65 K, x1 = 0.9137	–	1778.1 ± 2.9
305.65 K, x1 = 1	–	1773.4 ± 3.2
308.15 K, x1 = 0.051	1047.04 ± 0.81	1690.8 ± 2.6
308.15 K, x1 = 0.1019	1076 ± 0.4	1762.3 ± 1.3
308.15 K, x1 = 0.1963	1106.1 ± 0.3	1814 ± 1.2
308.15 K, x1 = 0.2894	1120.43 ± 0.32	1819.3 ± 1.4
308.15 K, x1 = 0.3959	1129.69 ± 0.48	1806.9 ± 1.6
308.15 K, x1 = 0.5016	1134.77 ± 0.71	1795 ± 1.9
308.15 K, x1 = 0.5821	1137.3 ± 0.92	1792.1 ± 2
308.15 K, x1 = 0.6837	1139.14 ± 1.2	1783.2 ± 2.3
308.15 K, x1 = 0.7763	1140.95 ± 1.5	1781.4 ± 2.6
308.15 K, x1 = 0.8761	1142.23 ± 1.9	1771.3 ± 2.8
308.15 K, x1 = 0.9137	1142.59 ± 2.1	1772.8 ± 2.9
308.15 K, x1 = 1	1143.39 ± 2.5	1767.9 ± 3.2
310.65 K, x1 = 0.051	1045.86 ± 0.81	1691.5 ± 2.5
310.65 K, x1 = 0.1019	1074.78 ± 0.4	1760.8 ± 1.3
310.65 K, x1 = 0.1963	1104.76 ± 0.3	1810.6 ± 1.2
310.65 K, x1 = 0.2894	1119.06 ± 0.32	1815.2 ± 1.4
310.65 K, x1 = 0.3959	1128.3 ± 0.48	1802.4 ± 1.6
310.65 K, x1 = 0.5016	1133.38 ± 0.7	1790.2 ± 1.9
310.65 K, x1 = 0.5821	1135.91 ± 0.91	1787.2 ± 2
310.65 K, x1 = 0.6837	1137.76 ± 1.2	1778.2 ± 2.3
310.65 K, x1 = 0.7763	1139.58 ± 1.5	1776.3 ± 2.6
310.65 K, x1 = 0.8761	1140.87 ± 1.9	1766 ± 2.8
310.65 K, x1 = 0.9137	1141.2 ± 2.1	1767.5 ± 2.9
310.65 K, x1 = 1	1141.96 ± 2.5	1762.5 ± 3.2
313.15 K, x1 = 0.051	1044.65 ± 0.8	1692 ± 2.5
313.15 K, x1 = 0.1019	1073.54 ± 0.4	1759.2 ± 1.3
313.15 K, x1 = 0.1963	1103.42 ± 0.3	1807.1 ± 1.2
313.15 K, x1 = 0.2894	1117.69 ± 0.32	1811.1 ± 1.4
313.15 K, x1 = 0.3959	1126.9 ± 0.48	1797.7 ± 1.6
313.15 K, x1 = 0.5016	1131.98 ± 0.7	1785.3 ± 1.9
313.15 K, x1 = 0.5821	1134.53 ± 0.91	1782.3 ± 2
313.15 K, x1 = 0.6837	1136.37 ± 1.2	1773.2 ± 2.3
313.15 K, x1 = 0.7763	1138.21 ± 1.5	1771.3 ± 2.6
313.15 K, x1 = 0.8761	1139.5 ± 1.9	1760.8 ± 2.8
313.15 K, x1 = 0.9137	1139.84 ± 2.1	1762.3 ± 2.9
313.15 K, x1 = 1	1140.55 ± 2.5	1757.2 ± 3.2
315.15 K, x1 = 0.051	1043.45 ± 0.8	–
315.15 K, x1 = 0.1019	1072.29 ± 0.4	–
315.15 K, x1 = 0.1963	1102.07 ± 0.29	–
315.15 K, x1 = 0.2894	1116.31 ± 0.32	–
315.15 K, x1 = 0.3959	1125.5 ± 0.48	–
315.15 K, x1 = 0.5016	1130.58 ± 0.7	–
315.15 K, x1 = 0.5821	1133.13 ± 0.91	–
315.15 K, x1 = 0.6837	1134.98 ± 1.2	–
315.15 K, x1 = 0.7763	1136.83 ± 1.5	–
315.15 K, x1 = 0.8761	1138.14 ± 1.9	–
315.15 K, x1 = 0.9137	1138.48 ± 2.1	–
315.15 K, x1 = 1	1139.18 ± 2.5	–
315.65 K, x1 = 0.051	–	1692.3 ± 2.4
315.65 K, x1 = 0.1019	–	1757.5 ± 1.3
315.65 K, x1 = 0.1963	–	1803.5 ± 1.2
315.65 K, x1 = 0.2894	–	1806.9 ± 1.4
315.65 K, x1 = 0.3959	–	1793.1 ± 1.6
315.65 K, x1 = 0.5016	–	1780.5 ± 1.9
315.65 K, x1 = 0.5821	–	1777.4 ± 2
315.65 K, x1 = 0.6837	–	1768.2 ± 2.3
315.65 K, x1 = 0.7763	–	1766.2 ± 2.6
315.65 K, x1 = 0.8761	–	1755.7 ± 2.8
315.65 K, x1 = 0.9137	–	1757.1 ± 2.9
315.65 K, x1 = 1	–	1751.9 ± 3.2
318.15 K, x1 = 0.051	1042.25 ± 0.8	1692.3 ± 2.4
318.15 K, x1 = 0.1019	1071.02 ± 0.4	1755.5 ± 1.3
318.15 K, x1 = 0.1963	1100.71 ± 0.29	1799.9 ± 1.2
318.15 K, x1 = 0.2894	1114.92 ± 0.32	1802.6 ± 1.4
318.15 K, x1 = 0.3959	1124.1 ± 0.48	1788.4 ± 1.6
318.15 K, x1 = 0.5016	1129.18 ± 0.7	1775.6 ± 1.9
318.15 K, x1 = 0.5821	1131.74 ± 0.91	1772.5 ± 2
318.15 K, x1 = 0.6837	1133.59 ± 1.2	1763.2 ± 2.3
318.15 K, x1 = 0.7763	1135.45 ± 1.5	1761.2 ± 2.6
318.15 K, x1 = 0.8761	1136.76 ± 1.9	1750.5 ± 2.8
318.15 K, x1 = 0.9137	1137.11 ± 2.1	1751.9 ± 2.9
318.15 K, x1 = 1	1137.82 ± 2.5	1746.5 ± 3.2
320.65 K, x1 = 0.051	1041.08 ± 0.8	1692.2 ± 2.3
320.65 K, x1 = 0.1019	1069.74 ± 0.4	1753.5 ± 1.3
320.65 K, x1 = 0.1963	1099.34 ± 0.29	1796.1 ± 1.2
320.65 K, x1 = 0.2894	1113.53 ± 0.31	1798.2 ± 1.4
320.65 K, x1 = 0.3959	1122.69 ± 0.47	1783.6 ± 1.6
320.65 K, x1 = 0.5016	1127.77 ± 0.7	1770.7 ± 1.9
320.65 K, x1 = 0.5821	1130.35 ± 0.9	1767.6 ± 2
320.65 K, x1 = 0.6837	1132.19 ± 1.2	1758.2 ± 2.3
320.65 K, x1 = 0.7763	1134.06 ± 1.5	1756.1 ± 2.6
320.65 K, x1 = 0.8761	1135.38 ± 1.9	1745.3 ± 2.8
320.65 K, x1 = 0.9137	1135.73 ± 2.1	1746.7 ± 2.9
320.65 K, x1 = 1	1136.45 ± 2.5	1741.3 ± 3.2
323.15 K, x1 = 0.051	1040.15 ± 0.81	1691.8 ± 2.4
323.15 K, x1 = 0.1019	1068.47 ± 0.41	1751.2 ± 1.3
323.15 K, x1 = 0.1963	1097.97 ± 0.31	1792.3 ± 1.2
323.15 K, x1 = 0.2894	1112.14 ± 0.32	1793.9 ± 1.4
323.15 K, x1 = 0.3959	1121.29 ± 0.47	1778.9 ± 1.6
323.15 K, x1 = 0.5016	1126.36 ± 0.69	1765.9 ± 1.9
323.15 K, x1 = 0.5821	1128.95 ± 0.9	1762.8 ± 2
323.15 K, x1 = 0.6837	1130.79 ± 1.2	1753.3 ± 2.3
323.15 K, x1 = 0.7763	1132.67 ± 1.5	1751 ± 2.6
323.15 K, x1 = 0.8761	1134 ± 1.9	1740.2 ± 2.8
323.15 K, x1 = 0.9137	1134.36 ± 2.1	1741.5 ± 2.9
323.15 K, x1 = 1	1135.08 ± 2.5	1736 ± 3.2
